The values that follow come from ChEMBL document CHEMBL2021790, “Pyridone methylsulfone hydroxamate LpxC inhibitors for the treatment of serious gram-negative infections” (J Med Chem, 2012).

Each structure is given as a SMILES string. In brackets after ≈: the same amount, converted by molar mass. Some results are limits rather than exact numbers.

The test system of data set [1] is Citrobacter freundii. Briefly: microbe, parasite or virus in culture.
Description: Antimicrobial activity against Citrobacter freundii after 16 to 20 hrs by 2-fold microbroth dilution method
Data set [2] is described as follows: Fraction unbound in human plasma relative to untreated control. The data set is classed as ADME, cell-free.
Data set [3] is described as follows: Thermodynamic solubility of the compound in thermosol at pH 9. The data set is classed as physicochemical. The settings on record: buffer, read-out: Therm_solubility.
Data set [4] relates to Klebsiella aerogenes. Briefly: microbe, parasite or virus in culture.
Description: Antimicrobial activity against Enterobacter aerogenes after 16 to 20 hrs by 2-fold microbroth dilution method
Data set [5] relates to Escherichia coli. The data set is described as follows: microbe, parasite or virus in culture.
Description: Antimicrobial activity against Escherichia coli after 16 to 20 hrs by 2-fold microbroth dilution method
Data set [6] has as its system Rattus norvegicus. Briefly: Free AUC in rat at 10 mg/kg. Details: dose 10 mg/kg. The settings on record: in vivo. Type of data set: ADME, organism-based.
Data set [7] can be described thus: Fraction unbound in rat plasma relative to untreated control. Type of data set: ADME, cell-free.
Data set [8] is described as follows: Thermodynamic solubility of the compound in thermosol at pH 3.0. The data set is classed as physicochemical. The settings on record: buffer, read-out: Therm_solubility.
Data set [9] has as its system Klebsiella pneumoniae. Briefly: microbe, parasite or virus in culture.
Description: Antimicrobial activity against Klebsiella pneumoniae after 16 to 20 hrs by 2-fold microbroth dilution method
Data set [10] can be described thus: Clearance in rat at 10 mg/kg. Type of data set: ADME, organism-based. Details: dose 10 mg/kg. Particulars: in vivo.
For data set [11], the system named is Pseudomonas aeruginosa. The data set is described as follows: microbe, parasite or virus in culture.
Description: Antimicrobial activity against Pseudomonas aeruginosa after 16 to 20 hrs by 2-fold microbroth dilution method
Data set [12] is described as follows: AUC in rat at 10 mg/kg. The data set is classed as ADME, organism-based. Details: dose 10 mg/kg. The settings on record: plasma.
For data set [13], the system named is Pseudomonas aeruginosa. Briefly: Antimicrobial activity against wild type Pseudomonas aeruginosa PA01 after 16 to 20 hrs by 2-fold microbroth dilution method. The data set is classed as functional.
The subject of data set [14] is Acinetobacter sp. The data set is described as follows: Antimicrobial activity against Acinetobacter sp. after 16 to 20 hrs by 2-fold microbroth dilution method. The data set is classed as functional. A general note: In broth dilution the organism is exposed to a series of concentrations in liquid medium.
Data set [15] in a line: Thermodynamic solubility of the compound in thermosol at pH 7.4. The settings on record: buffer, read-out: Therm_solubility. Type of data set: physicochemical.
The subject of data set [16] is Pseudomonas aeruginosa. The data set is described as follows: Antimicrobial activity against Pseudomonas aeruginosa PA3919 with (delta(mexAB-OprM)delta(mexXY)delta(MexZ) phenotype after 16 to 20 hrs by 2-fold microbroth dilution method. Type of data set: functional.
Data set [17] can be described thus: Volume of distribution at steady state in rat at 10 mg/kg. The data set is classed as ADME, organism-based. Particulars: in vivo, read-out: Vdss. Also on record: dose 10 mg/kg.
A short description of data set [18]: Half life in rat at 10 mg/kg. Also on record: dose 10 mg/kg. Particulars: in vivo. Type of data set: ADME, organism-based.
Data set [19] addresses T1, UDP-3-O-acyl-N-acetylglucosamine deacetylase (Pseudomonas aeruginosa (strain ATCC 15692 / PAO1 / 1C / PRS 101 / LMG12228), UniProt P47205).
T1 sequence (P47205 whole entry): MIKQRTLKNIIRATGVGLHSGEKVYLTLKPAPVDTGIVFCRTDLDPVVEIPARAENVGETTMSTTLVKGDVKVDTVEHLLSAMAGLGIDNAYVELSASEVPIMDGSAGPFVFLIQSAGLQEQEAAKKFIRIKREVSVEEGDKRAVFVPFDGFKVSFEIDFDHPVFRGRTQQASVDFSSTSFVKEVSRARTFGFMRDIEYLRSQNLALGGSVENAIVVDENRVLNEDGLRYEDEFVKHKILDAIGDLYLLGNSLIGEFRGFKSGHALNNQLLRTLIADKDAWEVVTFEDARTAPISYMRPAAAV
The data set is described as follows: Inhibition of Pseudomonas aeruginosa LpxC expressed in Escherichia coli using UDP-3-O-N-acetylglucosamine substrate measured after 30 mins by mass spectrometry.

Take `C[C@@](CCn1ccc(-c2ccc(-n3nccn3)cc2)cc1=O)(C(=O)NO)S(C)(=O)=O`: the MIC90 in data set [1] came out at 0.125 µg/mL (≈ 0.29 µM); in [4], 0.125 µg/mL (≈ 0.29 µM); in [5], 0.06 µg/mL (≈ 0.139 µM); in [9], 0.125 µg/mL (≈ 0.29 µM); in data set [11] it was 1 µg/mL (≈ 2.32 µM); in data set [14] it was 64 µg/mL (≈ 148 µM). Moreover, the results for the fraction unbound in data set [2] and in data set [7] were 0.25 and 0.13, respectively. The solubility thermodynamic in data set [3] amounted to 2740 µg/mL (≈ 6350 µM); in [8] it was 3.3 µg/mL (≈ 7.65 µM); in data set [15] it was 9.2 µg/mL (≈ 21.3 µM). The fAUC in data set [6] came to 680 ng·h/mL. In data set [10], the clearance (commonly a measure of how efficiently the substance is removed, as volume per time) amounted to 32 mL/min/kg. In data set [12], the area under the curve (AUC) (commonly concentration integrated over time) amounted to 5200 ng·h/mL. The MIC (usually the lowest concentration that inhibits growth of the organism) in [13] came out at 0.25 µg/mL (≈ 0.579 µM); in data set [16], 0.015 µg/mL (≈ 0.0348 µM). Further, the Vd in data set [17] was found to be 0.92 L/kg. In addition, in data set [18], the half-life (in general, how long it takes for the measured level to halve) was 0.94 h.
For the compound `COc1ccc(-c2ccn(CC[C@](C)(C(=O)NO)S(C)(=O)=O)c(=O)c2)c(F)c1`, the MIC90 is 0.5 µg/mL (≈ 1.21 µM) in [1]; 0.5 µg/mL (≈ 1.21 µM) in data set [4]; 0.25 µg/mL (≈ 0.606 µM) in [5]; 0.5 µg/mL (≈ 1.21 µM) in [9]; 1 µg/mL (≈ 2.42 µM) in data set [11]; above 64 µg/mL in [14]. Further, the fraction unbound (usually free concentration divided by total concentration) in [2] was found to be 0.31; in data set [7] it was 0.32. In addition, the results for the solubility thermodynamic in [3], in data set [8] and in [15] were above 14000 µg/mL, 82 µg/mL (≈ 199 µM) and 130 µg/mL (≈ 315 µM), respectively. Further, the fAUC in data set [6] worked out at 740 ng·h/mL. The compound also showed a clearance in data set [10] of 72 mL/min/kg. This compound also yielded an AUC in [12] of 2300 ng·h/mL. For the same compound, the MIC in [13] is 0.125 µg/mL (≈ 0.303 µM); in [16] it was 0.008 µg/mL (≈ 0.0194 µM). In [17], the Vd was 1.7 L/kg. This compound also showed a half-life in data set [18] of 1.4 h.
`C[C@@](CCc1ccc(-c2ccccc2)cc1)(C(=O)NO)S(C)(=O)=O`: the MIC90 in [1] is 8 µg/mL (≈ 23 µM); in [4] it was 4 µg/mL (≈ 11.5 µM); in [5], 2 µg/mL (≈ 5.76 µM); in data set [9] it was 16 µg/mL (≈ 46.1 µM); in [11], 4 µg/mL (≈ 11.5 µM); in [14] it was 32 µg/mL (≈ 92.1 µM). For the same compound, the unbound share (fraction unbound) in [2] is 0.023; in [7], 0.026. Also, the solubility thermodynamic in [3] was determined as 260 µg/mL (≈ 748 µM); in data set [8] it was 7.3 µg/mL (≈ 21 µM); in [15] it was 3.9 µg/mL (≈ 11.2 µM). Moreover, the fAUC in data set [6] was 75 ng·h/mL. The same compound had a clearance in data set [10] of 57 mL/min/kg. This compound displayed an AUC in data set [12] of 2900 ng·h/mL. Further, the MIC was 0.125 µg/mL (≈ 0.36 µM) in data set [13] and 0.008 µg/mL (≈ 0.023 µM) in [16]. Also, the Vd in data set [17] came to 3.8 L/kg. Also, the half-life in data set [18] was 3.2 h.
Take `C[C@@](CCn1ccc(C#Cc2ccccc2)cc1=O)(C(=O)NO)S(C)(=O)=O`: the MIC90 in data set [1] is 0.125 µg/mL (≈ 0.322 µM); in data set [4], 0.25 µg/mL (≈ 0.644 µM); in [5], 0.06 µg/mL (≈ 0.154 µM); in data set [9], 0.5 µg/mL (≈ 1.29 µM); in [11] it was 2 µg/mL (≈ 5.15 µM); in data set [14], above 64 µg/mL. It took 1.8 nM to reach half-maximal inhibition in data set [19] (IC50). For the same compound, the MIC in data set [13] is 0.25 µg/mL (≈ 0.644 µM); in data set [16], 0.015 µg/mL (≈ 0.0386 µM).
As to `C[C@@](CCn1ccc(-c2ccc(Cl)cc2F)cc1=O)(C(=O)NO)S(C)(=O)=O`, the MIC90 in data set [1] is 0.5 µg/mL (≈ 1.2 µM); in [4], 0.5 µg/mL (≈ 1.2 µM); in [5] it was 0.125 µg/mL (≈ 0.3 µM); in data set [9], 1 µg/mL (≈ 2.4 µM); in [11], 1 µg/mL (≈ 2.4 µM); in [14], 64 µg/mL (≈ 154 µM). Further, the IC50 (commonly the concentration needed to halve the response being measured) in data set [19] was 1 nM. Further, the values for the MIC in data set [13] and in [16] were 0.125 µg/mL (≈ 0.3 µM) and 0.008 µg/mL (≈ 0.0192 µM), respectively.
As for `C[C@@](CCn1ccc(-c2ccc3ccccc3c2)cc1=O)(C(=O)NO)S(C)(=O)=O`, the MIC90 was 0.125 µg/mL (≈ 0.302 µM) in data set [1]; 0.25 µg/mL (≈ 0.603 µM) in [4]; 0.06 µg/mL (≈ 0.145 µM) in data set [5]; 0.5 µg/mL (≈ 1.21 µM) in [9]; 1 µg/mL (≈ 2.41 µM) in data set [11]; above 64 µg/mL in data set [14]. In data set [19], this compound showed an IC50 of 1.2 nM. Besides, the MIC in data set [13] amounted to 0.125 µg/mL (≈ 0.302 µM); in data set [16], 0.008 µg/mL (≈ 0.0193 µM).
Turning to `C[C@@](CCn1cc(F)c(-c2ccccc2)cc1=O)(C(=O)NO)S(C)(=O)=O`, the MIC90 in data set [1] was 8 µg/mL (≈ 20.9 µM); in data set [4] it was 8 µg/mL (≈ 20.9 µM); in data set [5], 4 µg/mL (≈ 10.5 µM); in [9], 8 µg/mL (≈ 20.9 µM); in data set [11] it was 4 µg/mL (≈ 10.5 µM); in data set [14], 32 µg/mL (≈ 83.7 µM). In [19], this compound registered an IC50 of 2.3 nM. For the same compound, the MIC in data set [13] is 0.5 µg/mL (≈ 1.31 µM); in data set [16] it was 0.015 µg/mL (≈ 0.0392 µM).
Take `C[C@@](CCn1ccc(-c2ccc(F)c(F)c2F)cc1=O)(C(=O)NO)S(C)(=O)=O`: the MIC90 was 0.5 µg/mL (≈ 1.2 µM) in data set [1]; 1 µg/mL (≈ 2.39 µM) in data set [4]; 0.5 µg/mL (≈ 1.2 µM) in [5]; 2 µg/mL (≈ 4.78 µM) in data set [9]; 1 µg/mL (≈ 2.39 µM) in data set [11]; above 64 µg/mL in data set [14]. In addition, the IC50 in [19] worked out at 1.5 nM. Besides, the MIC is 0.25 µg/mL (≈ 0.598 µM) in data set [13] and 0.015 µg/mL (≈ 0.0359 µM) in data set [16].
Regarding `C[C@@](CCn1ccc(-c2ccccc2)cc1=O)(C(=O)NO)S(C)(=O)=O`, the MIC90 in [1] came out at 8 µg/mL (≈ 22 µM); in [4] it was 16 µg/mL (≈ 43.9 µM); in [5], 8 µg/mL (≈ 22 µM); in data set [9] it was 16 µg/mL (≈ 43.9 µM); in data set [11] it was 2 µg/mL (≈ 5.49 µM); in data set [14] it was 32 µg/mL (≈ 87.8 µM). For the same compound, the fraction unbound in [2] stood at 0.14; in [7], 0.28. Besides, the solubility thermodynamic in data set [3] was above 16000 µg/mL; in [8] it was 410 µg/mL (≈ 1130 µM); in data set [15], 480 µg/mL (≈ 1320 µM). The MIC in [13] amounted to 0.5 µg/mL (≈ 1.37 µM); in data set [16] it was 0.06 µg/mL (≈ 0.165 µM).
For `COc1ccc(-c2ccn(CC[C@](C)(C(=O)NO)S(C)(=O)=O)c(=O)c2)cn1`, the MIC90 in [1] was 16 µg/mL (≈ 40.5 µM); in [4] it was 32 µg/mL (≈ 80.9 µM); in data set [5], 8 µg/mL (≈ 20.2 µM); in [9], 32 µg/mL (≈ 80.9 µM); in [11] it was 16 µg/mL (≈ 40.5 µM); in [14], above 64 µg/mL. For the same compound, the IC50 in data set [19] is 6.4 nM. Also, the MIC in data set [13] worked out at 2 µg/mL (≈ 5.06 µM); in [16], 0.06 µg/mL (≈ 0.152 µM).
